Where a name gives a salt, the structure may show the parent alone.

For one assay, the target named is T1, Dopamine D5 (Homo sapiens, UniProt P21918).
T1 construct: expressed in transfected cells
Put plainly: PDSP primary radioligand binding assay. As to conditions: compound 10 μM. As to the method:
Primary and secondary radioligand binding assays are performed. In general, the primary assay is run at very high ligand (compound) concentration as a broad screen to determine whether a compound binds to a particular receptor. If greater than 50% inhibition at 10 μM (high concentration of compound) at a particular receptor is determined, a secondary assay is performed on that receptor. Data from the secondary assay is the binding affinity (Ki value).
A solution of the compound to be tested is prepared as a 1 mg/ml stock in Standard Binding Buffer or dimethyl sulfoxide (DMSO) according to its solubility. A similar stock of a reference compound (positive control) is also prepared.
Radioligand (radioligands are presented in Table 39) is diluted to five times the assay concentration (assay concentrations are presented in Table 39) in Standard Binding Buffer. Typically, the assay concentration of radioligand is a value between one half the KD and the KD of a particular radioligand at its target. Aliquots (50 μL) of radioligand are dispensed into the wells of a 96-well plate (see FIG. 11) containing 100 μL of Standard Binding Buffer (Table 40). Then, duplicate 50 μL aliquots of the test and reference compound dilutions are added (see FIG. 11). According to FIG. 11, increasing concentrations (from left to right) of reference or test compound (diluted in buffer) are added (50 μL aliquots, in duplicate) from 5× stock solutions to wells containing 50 μL of 5× radioligand (fixed concentration, prepared in buffer) and 100 μL of buffer. Finally, 50 μL of receptor-containing membrane homogenate (5× suspension in buffer) are added to achieve a final assay volume of 250 μL. Final concentrations of reference or test compound are listed above the columns in FIG. 11.
Finally, crude membrane fractions of cells expressing recombinant target (prepared from 10 cm plates by harvesting phosphate buffered saline (PBS)-rinsed monolayers, resuspending and lysing in chilled, hypotonic 50 mM Tris-HCl, pH 7.4, centrifuging at 20,000×g, decanting the supernatant and storing at −80° C.; typically, one 10 cm plate provides sufficient material for 24 wells) are resuspended in 3 mL of chilled Standard Binding Buffer and homogenized by several passages through a 26 gauge needle, and then 50 μL are dispensed into each well.
The 250 μL reactions are incubated at room temperature and shielded from light (to prevent photolysis of light-sensitive ligands) for 1.5 hours, then harvested by rapid filtration onto Whatman GF/B glass fiber filters pre-soaked with 0.3% polyethyleneimine using a 96-well Brandel harvester. Four rapid 500 μL washes are performed with chilled Standard Binding Buffer to reduce non-specific binding. Filters are placed in 6 mL scintillation tubes and allowed to dry overnight. The next day, 4 mL of EcoScint scintillation cocktail (National Diagnostics) are added to each tube. The tubes are capped, labeled, and counted by liquid scintillation counting. For higher throughput assays, bound radioactivity is harvested onto 0.3% polyethyleneimine-treated, 96-well filter mats using a 96-well Filtermate harvester. The filter mats are dried, then scintillant is melted onto the filters, and the radioactivity retained on the filters is counted in a Microbeta scintillation counter.
Raw data (dpm) representing total radioligand binding (i.e., specific+non-specific binding) are plotted as a function of the logarithm of the molar concentration of the competitor (i.e., test or reference compound). […]

For a further assay, the system named is Male P rats. Put plainly: Animal model of excessive (binge) alcohol consumption, operant alcohol responding. The format is in vivo, rat. As to conditions: N=5 per compound, oral gavage, lever press for alcohol, FIG. 13, FIG. 14. As to the method: Male P rats are used as subjects. All animals are individually housed in shoebox cages in a temperature- and humidity-controlled room on a 12 h:12 h light/dark cycle (lights on at 8:00 AM, off at 8:00 PM) with food and water available ad libitum. All behavioral training and testing take place between 8:00 AM and 10:00 AM. All procedures are conducted in accordance with the NIH Guide for the Care and Use of Laboratory Animals.
10% (v/v) EtOH and 3% (w/v) sucrose solutions are prepared using previously published procedures (Harvey et al. J. Neurosci. 2002, 22, 3765-3775; June et al. Neuropsychopharmacology 2003, 28, 2124-2137) with deionized water. The solutions are prepared daily. Compounds are administered by oral gavage (20-60 mg/kg) in all studies (e.g., alcohol responding, sucrose responding) as indicated in FIG. 12. The compounds are mixed in deionized water and administered by gavage in an injection volume of 1 mL/kg 25 min prior to the behavioral task. […]
Approximately 100 μL of whole blood is collected from a rat's tail tip into a heparin-coated microsample tube. […] The results are calculated in units of mg/dL and printed within 20 s of each trial as previously reported (Harvey et al., J. Neurosci. 2002, 22, 3765-3775; June et al. Neuropsychopharmacology 2003, 28, 2124-2137). […]

T1 sequence (P21918 whole entry): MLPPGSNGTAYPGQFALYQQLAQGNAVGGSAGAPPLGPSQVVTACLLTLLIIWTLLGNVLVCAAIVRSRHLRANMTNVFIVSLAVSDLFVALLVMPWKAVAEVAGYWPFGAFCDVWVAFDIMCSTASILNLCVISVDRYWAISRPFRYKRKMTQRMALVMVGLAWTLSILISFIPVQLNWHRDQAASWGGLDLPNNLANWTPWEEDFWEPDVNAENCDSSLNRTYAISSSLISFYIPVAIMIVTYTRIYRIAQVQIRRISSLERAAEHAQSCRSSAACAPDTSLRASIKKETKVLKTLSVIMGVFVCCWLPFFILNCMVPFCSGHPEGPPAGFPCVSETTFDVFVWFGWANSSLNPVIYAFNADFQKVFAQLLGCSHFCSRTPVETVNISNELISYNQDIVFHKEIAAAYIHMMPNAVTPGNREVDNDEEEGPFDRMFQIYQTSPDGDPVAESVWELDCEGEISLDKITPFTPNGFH

Consider `CCCOc1cc2c(cn1)[nH]c1ccncc12` [Compound 2, 8-Propoxypyridino[4′,3′-5,4]pyrrolo[3,2-c]pyridine hydrochloride], for which, on Dopamine D5, the “binding at 10 μM, Dopamine D5” value was less than 50%. The “effect on excessive alcohol consumption” value in the assay on Male P rats is recorded as “Reduce Excessive Alcohol Consumption”.
The like results for `CCCOc1cc2c(cn1)[nH]c1cnccc12` [Compound 4, 3-Propoxy pyridino[4′,3′-4,5]pyrrolo[2,3-c]pyridine hydrochloride] were, in that order, less than 50% and “Reduce Excessive Alcohol Consumption”.

For the origin of these results see patent US8268854B2, “Aza-beta-carbolines and methods of using same” (The UWM Research Foundation, Inc., priority 2008, dated 2012).
